Reference: ChEMBL document CHEMBL4219217, “Structure-activity relationship study of a series of caspase inhibitors containing γ-amino acid moiety for treatment of cholestatic liver disease” (Bioorg Med Chem Lett, 2018)
One block for each compound: values may come before it. Calls of active or inactive are those of the source. The calls are words filed in the database; no cut-off is given here.

Experiments:
[1] = AUC in C57BL/6J mouse liver at 1 mg/kg, po after 0.5 to 6 hrs by LC-MS/MS method; assay type: ADME, organism-based; set-up: time lower 0.5 hr, dose 1 mg/kg, time upper 6 hr, route oral; details: in vivo
[2] = Stability in rat plasma assessed as compound remaining level at 100 uM incubated for 2 hrs by LC-MS/MS method; assay type: ADME, cell-free; details: for remaining at 2 h, 100 µM: read-out: Stability; for Stability: 2 h, 100 µM
[3] = Cmax in C57BL/6J mouse at 10 mg/kg, po after 0.25 to 24 hrs by LC-MS/MS method; assay type: ADME, organism-based; set-up: dose 10 mg/kg, route oral; details: in vivo
[4] = (§1) AUC (0 to infinity) in C57BL/6J mouse at 10 mg/kg, po after 0.25 to 24 hrs by LC-MS/MS method; assay type: ADME, organism-based; set-up: dose 10 mg/kg, time infinity, route oral; details: C57BL/6J, in vivo
Mus musculus [5] = experiment: AUC (0 to infinity) in C57BL/6J mouse at 1 mg/kg, iv after 0.25 to 24 hrs by LC-MS/MS method; assay type: ADME, organism-based; set-up: dose 1 mg/kg, time infinity, route intravenous; details: in vivo
Mus musculus [6] = experiment: as §1; assay type: ADME, organism-based; set-up: dose 10 mg/kg, time infinity, route oral; details: in vivo
Rattus norvegicus [7] = experiment: Reduction in serum total bilirubin level in Sprague-Dawley rat model of alpha-naphthylisothiocyanate-induced cholestatic liver disease at 6 mg/kg administered intragastrically once daily for 1 week; assay type: functional, organism-based
Rattus norvegicus [8] = experiment: Reduction in serum direct bilirubin level in Sprague-Dawley rat model of alpha-naphthylisothiocyanate-induced cholestatic liver disease at 6 mg/kg administered intragastrically once daily for 1 week; assay type: functional, organism-based
Rattus norvegicus [9] = experiment: Reduction in serum indirect bilirubin level in Sprague-Dawley rat model of alpha-naphthylisothiocyanate-induced cholestatic liver disease at 6 mg/kg administered intragastrically once daily for 1 week; assay type: functional, organism-based
Caspase-3 = target: T1, Caspase-3 (Homo sapiens, UniProt P42574); experiment: Inhibition of Anti-Fas antibody-induced caspase-3 activity in human Jurkat E6-1 cells using Ac-DEVD-AMC substrate by fluorescence based assay; assay type: cell-based
T1 sequence (P42574 whole entry): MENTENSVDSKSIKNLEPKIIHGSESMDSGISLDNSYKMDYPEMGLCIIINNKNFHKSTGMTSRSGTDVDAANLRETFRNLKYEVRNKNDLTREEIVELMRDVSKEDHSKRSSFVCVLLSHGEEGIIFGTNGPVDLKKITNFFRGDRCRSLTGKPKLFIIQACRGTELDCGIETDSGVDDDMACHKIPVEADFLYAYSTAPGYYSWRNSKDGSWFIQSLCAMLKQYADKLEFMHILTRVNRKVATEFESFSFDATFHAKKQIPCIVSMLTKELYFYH

[10] = Stability in mouse plasma assessed as compound remaining level at 100 uM incubated for 2 hrs by LC-MS/MS method; assay type: ADME, cell-free

Structure (SMILES): C[C@H](NC(=O)C(=O)Nc1ccccc1C(C)(C)C)C(=O)N[C@@H](CC(=O)O)C(=O)COc1c(F)c(F)cc(F)c1F [EMRICASAN]
IC50 (Caspase-3): 6 nM
AUC [1]: 2350 nmol·h/kg
Cmax [3]: 227 nM
AUC (Mus musculus [5]): 0.446 µM·h
AUC (Mus musculus [6]): 0.197 µM·h

Structure (SMILES): O=C(O)C[C@H](NC(=O)C1CCN(C(=O)Oc2ccccc2Cl)CC1)C(=O)COc1c(F)c(F)cc(F)c1F
Stability [2]: Unstable
Stability [10]: Unstable

Structure (SMILES): O=C(O)C[C@H](NC(=O)C1CCN(C(=O)c2cccs2)CC1)C(=O)COc1c(F)c(F)cc(F)c1F
AUC [1]: 804 nmol·h/kg

Structure (SMILES): CC(C)(C)c1ccccc1NC(=O)C(=O)N1CCC[C@@H](C(=O)N[C@@H](CC(=O)O)C(=O)COc2c(F)c(F)cc(F)c2F)C1
remaining at 2 h, 100 µM [2]: 67%

Structure (SMILES): O=C(O)C[C@H](NC(=O)C1CCN(C(=O)OC2CCCC2)CC1)C(=O)COc1c(F)c(F)cc(F)c1F
Stability [2]: Stable
Stability [10]: Stable

More lines, main results first:

AUC [1]: 334 nmol·h/kg
Structure (SMILES): O=C(O)C[C@H](NC(=O)C1CCN(C(=O)C2CC(F)(F)C2)CC1)C(=O)COc1c(F)c(F)cc(F)c1F

remaining at 2 h, 100 µM [2]: 93%
Cmax [3]: 1640 nM
AUC(0-inf) [4]: 3.66 µM·h
Structure (SMILES): CC(C)(C)c1ccccc1NC(=O)C(=O)N1CCC(C(=O)N[C@@H](CC(=O)O)C(=O)COc2c(F)c(F)cc(F)c2F)CC1

AUC [1]: 2219 nmol·h/kg
Cmax [3]: 405 nM
AUC (Mus musculus [5]): 0.852 µM·h
AUC (Mus musculus [6]): 1.71 µM·h
Structure (SMILES): O=C(O)C[C@H](NC(=O)C1CCN(C(=O)C2CCCC2)CC1)C(=O)COc1c(F)c(F)cc(F)c1F
Activity (Rattus norvegicus [7]): Active
Activity (Rattus norvegicus [8]): Active
Activity (Rattus norvegicus [9]): Active
